Reference: patent US10106501B2, “Nuclear receptor modulators” (AbbVie Inc., priority 2015, dated 2018)

biological target: T1, chimeric human RORγ-Gal4 receptor (Homo sapiens, UniProt P51449); experiment: transient transactivation assay (RORγ-Gal4 luciferase reporter); type: cell-based; conditions: Cos-7 cells transfected with RORγ-Gal4 and 5Gal4 pGL3 TK Luc reporter; overnight incubation; T0901317 at 10^-5 M as reference; read-out: IC50
T1 sequence (P51449 269-508 limits assumed): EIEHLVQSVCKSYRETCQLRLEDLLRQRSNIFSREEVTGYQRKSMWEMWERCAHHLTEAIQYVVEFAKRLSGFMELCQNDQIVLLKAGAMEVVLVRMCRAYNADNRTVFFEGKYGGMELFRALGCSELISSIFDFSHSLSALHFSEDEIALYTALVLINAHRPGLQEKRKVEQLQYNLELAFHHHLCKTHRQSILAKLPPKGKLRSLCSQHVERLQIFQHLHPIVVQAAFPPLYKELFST

IC50 [nM] | Structure (SMILES)
< 100 | Cc1cc(C(F)(F)F)nc2c1cc(C(=O)c1c(Cl)ccc(C(=O)N3CCC(O)CC3)c1Cl)n2C [Example FZ, (2,4-dichloro-3-(1,4-dimethyl-6-(trifluoromethyl)-1H-pyrrolo[2,3-b]pyridine-2-carbonyl)phenyl)(4-hydroxypiperidin-1-yl)methanone]
100 to 500 | Cc1ccc(C(=O)N2CCOCC2)c(C)c1C(=O)c1cc2c(C)cc(C(F)(F)F)cc2n1C [Example G1, (2,6-dimethyl-3-(morpholine-4-carbonyl)phenyl)(1,4-dimethyl-6-(trifluoromethyl)-1H-indol-2-yl)methanone]
< 100 | Cc1cc(C(F)(F)F)nc2c1cc(C(=O)c1c(Cl)ccc(C(=O)N3CCC(S(C)(=O)=O)CC3)c1Cl)n2C [Example GB, (2,4-dichloro-3-(1,4-dimethyl-6-(trifluoromethyl)-1H-pyrrolo[2,3-b]pyridine-2-carbonyl)phenyl)(4-(methylsulfonyl)piperidin-1-yl)methanone]
< 100 | Cc1cc(C(F)(F)F)nc2c1cc(Cc1c(Cl)ncc(C(=O)N3CC[C@@H](CC(=O)O)[C@@H](C)C3)c1Cl)n2C [Example GC, 2-((3R,4S)-1-(4,6-dichloro-5-((1,4-dimethyl-6-(trifluoromethyl)-1H-pyrrolo[2,3-b]pyridin-2-yl)methyl)nicotinoyl)-3-methylpiperidin-4-yl)acetic acid]
100 to 500 | Cc1cc(C(F)(F)F)nc2c1cc(Cc1c(Cl)ncc(C(=O)N3CCN(S(C)(=O)=O)CC3)c1Cl)n2C [Example GE, (4,6-dichloro-5-((1,4-dimethyl-6-(trifluoromethyl)-1H-pyrrolo[2,3-b]pyridin-2-yl)methyl)pyridin-3-yl)(4-(methylsulfonyl)piperazin-1-yl)methanone]
< 100 | Cc1cc(C(F)(F)F)nc2c1cc(Cc1c(Cl)ncc(C(=O)N3CCOCC3)c1Cl)n2C [Example GF, (4,6-dichloro-5-((1,4-dimethyl-6-(trifluoromethyl)-1H-pyrrolo[2,3-b]pyridin-2-yl)methyl)pyridin-3-yl)(morpholino)methanone]
< 100 | Cc1cc(C(F)(F)F)nc2c1cc(Cc1c(Cl)ncc(C(=O)N3CCC(S(C)(=O)=O)CC3)c1Cl)n2C [Example GG, (4,6-dichloro-5-((1,4-dimethyl-6-(trifluoromethyl)-1H-pyrrolo[2,3-b]pyridin-2-yl)methyl)pyridin-3-yl)(4-(methylsulfonyl)piperidin-1-yl)methanone]
< 100 | Cn1c(C(=O)c2c(Cl)ccc(C(=O)N3CCC(CC(=O)O)CC3)c2Cl)cc2ccc(OC(F)(F)F)cc21 [Example GI, 2-(1-(2,4-dichloro-3-(1-methyl-6-(trifluoromethoxy)-1H-indole-2-carbonyl)benzoyl)piperidin-4-yl)acetic acid]
< 100 | Cn1c(Cc2c(Cl)cnc(C(=O)N3CCC(CC(=O)O)CC3)c2Cl)cc2ccc(OC(F)(F)F)cc21 [Example GK, 2-(1-(3,5-dichloro-4-((1-methyl-6-(trifluoromethoxy)-1H-indol-2-yl)methyl)picolinoyl)piperidin-4-yl)acetic acid]
< 100 | Cn1c(Cc2c(Cl)ncc(C(=O)N3CCC(CC(=O)O)CC3)c2Cl)cc2c(F)cc(C3CC3)cc21 [Example GN, 2-[1-[4,6-dichloro-5-[(6-cyclopropyl-4-fluoro-1-methyl-1H-indol-2-yl)methyl]pyridine-3-carbonyl]-4-piperidyl]acetic acid]
100 to 500 | COC(c1c(C)ccc(C(=O)N2CCOCC2)c1C)c1cc2c(C)cc(C(F)(F)F)cc2n1C (centres unmarked) [Example K1, (3-((1,4-dimethyl-6-(trifluoromethyl)-1H-indol-2-yl)(methoxy)methyl)-2,4-dimethylphenyl)(morpholino)methanone]
100 to 500 | Cn1c(Cc2c(Cl)ccc(C(=O)N3CCC(CO)CC3)c2Cl)cc2ccc(C(F)(F)F)cc21 [Example L-2]
100 to 500 | CC(=O)N1CCN(C(=O)c2ccc(Cl)c(Cc3cc4ccc(C(F)(F)F)cc4n3C)c2Cl)CC1 [Example L-3]
500 to 1000 | Cn1c(Cc2c(Cl)ccc(C(=O)N3CC[C@@H](F)[C@H](O)C3)c2Cl)cc2ccc(C(F)(F)F)cc21 [Example L-5]
100 to 500 | Cc1cc(C(F)(F)F)cc2c1CC(Cc1c(Cl)ccc(C(=O)N3CCOCC3)c1Cl)N2C (centres unmarked) [Example Q, (2,4-dichloro-3-((1,4-dimethyl-6-(trifluoromethyl)indolin-2-yl)methyl)phenyl)(morpholino)methanone]
< 100 | Cn1c(Cc2c(Cl)ccc(C(=O)N3CCC(CC(=O)O)CC3)c2Cl)cc2c(Cl)cc(C#N)cc21 [Example R, 2-(1-(2,4-dichloro-3-((4-chloro-6-cyano-1-methyl-1H-indol-2-yl)methyl)benzoyl)piperidin-4-yl)acetic acid]
< 100 | Cc1cc(C(F)(F)F)cc2c1cc(Cc1c(Cl)ccc(C(=O)N3CCN(C4CC(C(=O)O)C4)CC3)c1Cl)n2C (centres unmarked) [Example S, 3-(4-(2,4-dichloro-3-((1,4-dimethyl-6-(trifluoromethyl)-1H-indol-2-yl)methyl)benzoyl)piperazin-1-yl)cyclobutanecarboxylic acid]

IC50 [nM] | Structure (SMILES)
100 to 500 | Cc1cc(C(F)(F)F)cc2c1cc(Cc1c(Cl)ccc(C(=O)N3CCN(C(C)(C)C(=O)O)CC3)c1Cl)n2C [Example T, 2-(4-(2,4-dichloro-3-((1,4-dimethyl-6-(trifluoromethyl)-1H-indol-2-yl)methyl)benzoyl)piperazin-1-yl)-2-methylpropanoic acid]
< 100 | Cc1cc(C(F)(F)F)cc2c1cc(Cc1c(Cl)ccc(C(=O)N3CCN(C(C)C(=O)O)CC3)c1Cl)n2C (centres unmarked) [Example U, 2-(4-(2,4-dichloro-3-((1,4-dimethyl-6-(trifluoromethyl)-1H-indol-2-yl)methyl)benzoyl)piperazin-1-yl)propanoic acid]
< 100 | Cc1cc(C(F)(F)F)cc2c1c(Cc1c(Cl)ccc(C(=O)N3CCC(CC(=O)O)CC3)c1Cl)cn2C [F, 2-(1-(2,4-dichloro-3-((1,4-dimethyl-6-(trifluoromethyl)-1H-indol-3-yl)methyl)benzoyl)piperidin-4-yl)acetic acid]
< 100 | Cn1c(Cc2c(Cl)ccc(C(=O)N3CCC(CC(=O)O)CC3)c2Cl)cc2c(Cl)cc(Cl)cc21 [FA, 2-(1-(2,4-dichloro-3-((4,6-dichloro-1-methyl-1H-indol-2-yl)methyl)benzoyl)piperidin-4-yl)acetic acid]
< 100 | Cn1c(Cc2c(Cl)ccc(C(=O)N3CCC(C(=O)O)CC3)c2Cl)cc2c(F)cc(C(F)(F)F)cc21 [FE-2]
< 100 | C[C@@H]1CN(C(=O)c2ccc(Cl)c(Cc3cc4c(F)cc(C(F)(F)F)cc4n3C)c2Cl)CC[C@@H]1C(=O)O [FE-3]
< 100 | C[C@H]1CN(C(=O)c2ccc(Cl)c(Cc3cc4c(F)cc(C(F)(F)F)cc4n3C)c2Cl)CC[C@H]1C(=O)O [FE-4]
< 100 | Cc1cc(OC(F)F)cc2c1cc(Cc1c(Cl)ccc(C(=O)N3CCC(C(=O)O)C(C)C3)c1Cl)n2C (centres unmarked) [FF-1]
< 100 | Cc1cc(OC(F)F)cc2c1cc(Cc1c(Cl)ccc(C(=O)N3CCC(C(=O)O)CC3)c1Cl)n2C [FF-2]
< 100 | Cn1c(Cc2c(Cl)ccc(C(=O)N3CCC(C(=O)O)CC3)c2Cl)cc2ccc(OC(F)(F)F)cc21 [FI-1]
< 100 | CC1CN(C(=O)c2ccc(Cl)c(Cc3cc4ccc(OC(F)(F)F)cc4n3C)c2Cl)CCC1C(=O)O (centres unmarked) [FI-2]
< 100 | Cc1ccc(C(=O)N2CCOCC2)c(C)c1Cc1cc2c(C)cc(C(F)(F)F)cc2n1C [G, (3-((1,4-dimethyl-6-(trifluoromethyl)-1H-indol-2-yl)methyl)-2,4-dimethylphenyl)(morpholino)methanone]
< 100 | Cc1cc(C(F)(F)F)cc2ccn(Cc3c(Cl)ccc(C(=O)N4CCC(CC(=O)O)CC4)c3Cl)c12 [J, 2-(1-(2,4-dichloro-3-((7-methyl-5-(trifluoromethyl)-1H-indol-1-yl)methyl)benzoyl)piperidin-4-yl)acetic acid]
100 to 500 | Cc1ccc(C(=O)N2CCOCC2)c(C)c1C(O)c1cc2c(C)cc(C(F)(F)F)cc2n1C (centres unmarked) [K, (3-((1,4-dimethyl-6-(trifluoromethyl)-1H-indol-2-yl)(hydroxy)methyl)-2,4-dimethylphenyl)(morpholino)methanone]
< 100 | Cn1c(Cc2c(Cl)ccc(C(=O)N3CCC(O)CC3)c2Cl)cc2ccc(C(F)(F)F)cc21 [L, (2,4-dichloro-3-((1-methyl-6-(trifluoromethyl)-1H-indol-2-yl)methyl)phenyl)(4-hydroxypiperidin-1-yl)methanone]
100 to 500 | Cn1c(Cc2c(Cl)ccc(C(=O)N3CCC(C(=O)O)CC3)c2Cl)cc2ccc(C(F)(F)F)cc21 [M, 1-(2,4-dichloro-3-((1-methyl-6-(trifluoromethyl)-1H-indol-2-yl)methyl)benzoyl)piperidine-4-carboxylic acid]

same assay, conditions: read-out: IC50

Structure (SMILES) | IC50 [nM]
Cc1cc(C(F)(F)F)nc2c1cc(C(=O)c1c(Cl)ccc(C(=O)N3CC[C@@H](CC(=O)O)[C@@H](C)C3)c1Cl)n2C.Cc1cc(C(F)(F)F)nc2c1cc(C(=O)c1c(Cl)ccc(C(=O)N3CC[C@@H](CC(=O)O)[C@H](C)C3)c1Cl)n2C.Cc1cc(C(F)(F)F)nc2c1cc(C(=O)c1c(Cl)ccc(C(=O)N3CC[C@H](CC(=O)O)[C@@H](C)C3)c1Cl)n2C.Cc1cc(C(F)(F)F)nc2c1cc(C(=O)c1c(Cl)ccc(C(=O)N3CC[C@H](CC(=O)O)[C@H](C)C3)c1Cl)n2C [Example GA] | < 100
Cc1cc(C(F)(F)F)nc2c1cc(Cc1c(Cl)cnc(C(=O)N3CCOCC3)c1Cl)n2C [Example GH, (3,5-dichloro-4-((1,4-dimethyl-6-(trifluoromethyl)-1H-pyrrolo[2,3-b]pyridin-2-yl)methyl)pyridin-2-yl)(morpholino)methanone] | < 100
